{"source": "patent US20070065850A1", "about": "“Method for diagnosis of heart failure” (OSAKA UNIVERSITY, priority 2005, published 2007)", "key": {"[1]": {"test_system": "CHOP", "assay": "CHOP protein level by immunoblotting after siRNA transfection", "format": "cell-based, rat", "details": "cardiac myocytes treated with tunicamycin; protein measured 48 hrs after transfection; actin internal control", "experimental": "Immunoblotting was performed as described previously (13). Primary antibodies targeting CHOP (sc-793) and actin (sc-1615) were purchased from Santa Cruz Biotechnology. Forty eight hours after the treatment of neonatal rat cardiac myocytes with tunicamycin (Sigma-Aldrich), cardiac myocytes were harvested.\n(§1) The inventors designed 3 different short interfering RNAs (siRNA) with 3′ dTdT overhangs to knock down CHOP mRNA (CHOP siRNA-1: 5′-CCUUCACUACUCUUGACCC-3′ (SEQ ID NO. 1), siRNA-2: 5′-GAUCAAGGAAGAACUAGGA-3′ (SEQ ID NO. 2), siRNA-3: 5′-GGAGCAGGAGAAUGAGAGG-3′(SEQ ID NO. 3) and ordered Dharmacon Inc. to synthesize them. After rat cardiac myocytes were isolated, they were incubated in Dulbecco's modified Eagle's medium (Invitrogen Corporation) Opti-MEM (Invitrogen Corporation), siRNA oligonucleotides (CHOP siRNA 1-3) (60 nM) and Optifect (Invitrogen Corporation) were added on the day of cardiac myocyte isolation. As a negative control, cells were transfected with siRNA against firefly luciferase from Photinus pyralis (GL2 siRNA) (15). Messenger RNA and protein levels of CHOP were measured 24 and 48 hrs after the transfection of CHOP siRNA, respectively."}, "[2]": {"test_system": "CHOP mRNA", "assay": "CHOP mRNA knockdown by siRNA transfection (RNA interference), real-time quantitative RT-PCR", "format": "cell-based, rat", "details": "siRNA 60 nM, mean±SEM", "experimental": "(§2) RT-PCR of human and rat heart samples was performed according to the Omniscript Reverse Transcription handbook (QIAGEN Inc.). The human and rat primers and probes used for quantification of BNP, GRP78, CHOP, and GAPDH were all designed according to the manufacturer's protocol (Applied Biosystems, https://www.appliedbiosystems.com/catalog/). Real-time quantitative RT-PCR was performed with an ABI PRISM 7700 Sequence Detection System (Applied Biosystems) by the relative standard curve method. The target amount was determined from the relative standard curves constructed with serial dilutions of the control total RNA.\nas §1, with “As a negative control, cells were transfected with siRNA against firefly luciferase from Photinus pyralis (GL2 siRNA) (15).” left out, “respectively. […]” for “respectively.”"}, "[3]": {"test_system": "cardiac myocytes", "assay": "MTT assay (cell viability)", "format": "cell-based, rat", "details": "tunicamycin for 48 hours", "experimental": "Cardiac myocytes were treated with tunicamycin for 48 hours, after which cell viability was assessed by MTT assay according to the manufacturer's instructions (Cell Counting Kit-8, Wako Pure Chemical Industries, Ltd.). The percentage of viable cells was determined by taking the value for untreated cells as 100%.\nas §1"}, "[4]": {"test_system": "neonatal rat cardiac myocytes", "assay": "Apoptotic cell assay (TUNEL)", "format": "cell-based", "experimental": "The terminal deoxynucleotidyl transferase-mediated dUTP nick end labeling (TUNEL) assay was performed as described previously (7). Forty eight hours after the treatment of neonatal rat cardiac myocytes with tunicamycin (Sigma-Aldrich), cells were subjected to TUNEL staining. The TUNEL-positive cardiac myocytes counted in DAPI-positive cardiac myocytes (n=100, 5 times) were expressed as a percentage.\nas §1"}, "[5]": {"test_system": "cultured neonatal rat cardiac myocytes", "assay": "CHOP expression by real-time quantitative RT-PCR after treatment with pharmacological ER stress inducers", "format": "cell-based", "details": "for CHOP/GAPDH: cultured cardiac myocytes 48 hours after treatment with ER stress inducer, untreated 1.0, mean±SEM", "experimental": "Primary cultures of cardiac myocytes were prepared from neonatal rat hearts as described previously (13). All procedures were performed in accordance with the guidline of Osaka University School of Medicine with regard to animal care and the “Position of the American Heart Association on Research Animal Use.”\nas §2"}}, "note": "d = 2'-deoxy (DNA)"}
{"molecule": "CHOP siRNA-2: siRNA with 3′ dTdT overhangs to knock down CHOP mRNA: 5′-GAUCAAGGAAGAACUAGGA-3′ (SEQ ID NO. 2) (RNA, 3' dTdT, backbone not given here)", "values": [{"measurement": "protein level of CHOP after transfection of siRNA", "setting": "[1]", "result": "almost completely suppressed"}, {"measurement": "CHOP/GAPDH after transfection of siRNA, induction by brefeldin A", "setting": "[2]; brefeldin A alone 8.1±0.7", "result": "2.2±0.8"}, {"measurement": "CHOP/GAPDH after transfection of siRNA, induction by thapsigargin", "setting": "[2]; thapsigargin alone 19.0±0.3", "result": "2.1±1.0"}, {"measurement": "Effect of siRNA on the tunicamycin-induced decrease of cell viability", "setting": "[3]; siRNA 60 nM", "result": "attenuated"}, {"measurement": "Effect of siRNA on the tunicamycin-induced increase of TUNEL-positive cardiac myocytes", "setting": "[4]; tunicamycin 48 hours, siRNA 60 nM", "result": "attenuated"}]}
{"molecule": "C/C=C(/C)C(=O)O[C@H]1C(C)=C2[C@H]([C@@H]1OC(=O)CCCCCCC)[C@@](C)(OC(C)=O)C[C@H](OC(=O)CCC)[C@@]1(O)[C@H]2OC(=O)[C@@]1(C)O", "note": "[thapsigargin]", "values": [{"measurement": "CHOP/GAPDH", "setting": "[5]", "result": "19.0±0.3"}]}
{"molecule": "C[C@H]1CCC/C=C/[C@@H]2C[C@H](O)C[C@H]2[C@H](O)/C=C/C(=O)O1", "note": "[brefeldin A]", "values": [{"measurement": "CHOP/GAPDH", "setting": "[5]", "result": "8.1±0.7"}]}
{"molecule": "tunicamycin", "values": [{"measurement": "Cell viability (MTT assay)", "setting": "[3]; untreated cells as 100%", "result": "decreased"}, {"measurement": "Number of TUNEL-positive cardiac myocytes", "setting": "[4]; 48 hours after treatment with tunicamycin, vs. no treatment", "result": "increased"}, {"measurement": "CHOP expression (real-time quantitative RT-PCR)", "setting": "[5]; cultured neonatal rat cardiac myocytes treated with tunicamycin, normalized for GAPDH, compared with 0 hour", "result": "increase"}]}
